Measured values published in patent publication EP4201929A1, “QUINOXALINE THIOREDOXIN REDUCTASE INHIBITORS” (geneXplain GmbH, priority 2021, dated 2023).

How the values were obtained:
Assay in all cases: Growth suppression, cancer cell line panel (resazurin)
Type in all cases: cell-based
MDA-MB-468 = MDA-MB-468 breast, 48 hours
Description: (§1) Breast, colon, ovarian, cervical, liver and lung carcinoma cell lines were grown in DMEM supplemented with 10% FBS, and antibiotics were cultured at 37 °C and 5% CO2. Osteosarcoma, melanoma, lymphoma, neuroblastoma and leukemia cell lines were cultured in RPMI 1640 with 10% FBS and antibiotics. An oxygen concentration of 0.3% was obtained by flushing a sealed box containing the cells with premixed gas composed of 95% nitrogen (N2) and 5% CO2 (AGA AB, Sweden). To obtain an oxygen concentration of 0.05%, the cells were flushed with the premixed gas continuously throughout the experiment.
(§2) Cells were grown in 96-well plates at a density of 3000 cells per well with or without doxycycline and treated with compounds. After 48 hours of incubation the proliferative cell reagent resazurin (Thermo Fisher Scientific) was added to the cells. The degree of resazurin reduction, which reflects cell viability, was measured by microplate reader by monitoring the absorbance at 570 nm and 600 nm, according to the manufacturer.
(§3) Growth suppression by the soluble compound 1d*HCl in a panel of 27 cancer cell lines. The panel of cancer cell lines, including carcinomas of breast (MDA-MB231, SKBR3, T47D, MCF7; BT549, BT20, MDA-MB468), colon, (SW480, RKO, HT29, HCT116) ovarian (OVCAR3, OVCAR4, OVCAR8), cervical (SW756, C33A), liver (HEPG2) and lung (H23), osteosarcoma (SJSA and U2OS), melanoma (ME180), lymphoma (Raji, HDLM2), neuroblastoma (SKNAS, IMR32) and leukemia (NB4, K562) were treated with increasing concentrations of 1d*HCl: 0.4; 0.8; 1.6; 3.2; 6.4; 12.8; 25.6 µM in 96-well plates. After 48 hours of incubation the proliferative cell reagent resazurin was added to the cells. The degree of resazurin reduction, which reflects cell viability, was measured by microplate reader by monitoring the absorbance at 570 nm and 600 nm, according to the manufacturer, and the IC50 and AUC (area under curve) were determined (Table 2). As could be seen in Table 2, 1d*HCl suppressed the growth of cancer cell lines of a different origin, including carcinomas, osteosarcomas, melanoma, lymphoma, leukemia and neuroblastoma. These findings open up a possibility of the application of the present invention in anti-cancer therapy in a broad range of tumor types. Table 2: a) Breast cancer

SW480 = SW480 colon, 48 hours
Description: as §1, §2, §3

HT29 = HT29 colon, 48 hours
Description: as §1, §2, §3

SW756 = SW756 cervical, 48 hours
Description: as §1, §2, §3

Raji = Raji lymphoma, 48 hours
Description: as §1, §2, §3

MCF7 = MCF7 breast, 48 hours
Description: as §1, §2, §3

SJSA = SJSA osteosarcoma, 48 hours
Description: as §1, §2, §3

OVCAR8 = OVCAR8 ovarian, 48 hours
Description: as §1, §2, §3

U2OS = U2OS osteosarcoma, 48 hours
Description: as §1, §2, §3

MDA- MB231 = conditions: MDA-MB231 breast, 48 hours
Description: as §1, §2, §3

OVCAR4 = OVCAR4 ovarian, 48 hours
Description: as §1, §2, §3

C33A = C33A cervical, 48 hours
Description: as §1, §2, §3

T47D = T47D breast, 48 hours
Description: as §1, §2, §3

HDLM2 = HDLM2 lymphoma, 48 hours
Description: as §1, §2, §3

BT549 = BT549 breast, 48 hours
Description: as §1, §2, §3

RKO = RKO colon, 48 hours
Description: as §1, §2, §3

NB4 = NB4 leukemia, 48 hours
Description: as §1, §2, §3

K562 = K562 leukemia, 48 hours
Description: as §1, §2, §3

HCT116 = HCT116 colon, 48 hours
Description: as §1, §2, §3

H23 = H23 lung, 48 hours
Description: as §1, §2, §3

OVCAR3 = OVCAR3 ovarian, 48 hours
Description: as §1, §2, §3

HepG2 = HepG2 liver, 48 hours
Description: as §1, §2, §3

[1] = Homo sapiens, resazurin, read-out: ICso

With `Cl.N#Cc1c(-c2cccnc2)[n+]([O-])c2cc(F)c(N3CCOCC3)cc2[n+]1[O-]` [1d*HCl, 6-Fluoro-7-(morpholin-4-yl)-3-(pyridin-3-yl)quinoxaline-2-carbonitrile-1,4-dioxide hydrochloride] the IC50 (MDA-MB-468; Homo sapiens, resazurin) was 2.78 µM, the AUC (MDA-MB-468; area under curve, 0.4-25.6 µM) was 4,04 and the IC50 (SW480; Homo sapiens, resazurin) was 3.72 µM. The AUC (SW480; area under curve, 0.4-25.6 µM) was 4,78, the AUC (HT29; area under curve, 0.4-25.6 µM) was 4,77 and the IC50 (HT29; Homo sapiens, HT-29, resazurin) was 3.5 µM. The IC50 (SW756; Homo sapiens, resazurin) was 1.54 µM, the AUC (SW756; area under curve, 0.4-25.6 µM) was 2,84 and the IC50 (Raji; Homo sapiens, resazurin) was 1.22 µM. The AUC (Raji; area under curve, 0.4-25.6 µM) was 2,93, the IC50 (MCF7; Homo sapiens, resazurin) was 2.54 µM and the AUC (MCF7; area under curve, 0.4-25.6 µM) was 3,64. For the same compound, the IC50 (SJSA; resazurin, read-out: ICso) was 4.08 µM, the AUC (SJSA; area under curve, 0.4-25.6 µM) was 4,96 and the IC50 (OVCAR8; Homo sapiens, OVCAR-8, resazurin) was 2.36 µM. The AUC (OVCAR8; area under curve, 0.4-25.6 µM) was 2,98, the IC50 (U2OS; [1]) was 1.04 µM and the AUC (U2OS; area under curve, 0.4-25.6 µM) was 2,10. For the same compound, the IC50 (MDA- MB231; Homo sapiens, MDA-MB-231, resazurin) was 0.78 µM, the AUC (MDA- MB231; area under curve, 0.4-25.6 µM) was 1,21 and the IC50 (OVCAR4; Homo sapiens, OVCAR-4, resazurin) was 1.57 µM. For the same compound, the AUC (OVCAR4; area under curve, 0.4-25.6 µM) was 3,7, the IC50 (C33A; resazurin) was “variable” and the AUC (C33A; area under curve, 0.4-25.6 µM) was 21. For the same compound, the IC50 (T47D; Homo sapiens, resazurin) was 2.74 µM, the AUC (T47D; area under curve, 0.4-25.6 µM) was 3,93 and the AUC (HDLM2; area under curve, 0.4-25.6 µM) was 4,68. For the same compound, the IC50 (HDLM2; Homo sapiens, HDLM-2, resazurin) was 1.27 µM, the AUC (BT549; area under curve, 0.4-25.6 µM) was 2,52 and the IC50 (BT549; Homo sapiens, BT-549, resazurin) was 1.7 µM. For the same compound, the IC50 (RKO; Homo sapiens, resazurin) was 0.538 µM, the AUC (RKO; area under curve, 0.4-25.6 µM) was 0,942 and the IC50 (NB4; resazurin) was “variable”. The AUC (NB4; area under curve, 0.4-25.6 µM) was 25,4, the IC50 (K562; Homo sapiens, resazurin) was 2.95 µM and the AUC (K562; area under curve, 0.4-25.6 µM) was 4,39. For the same compound, the AUC (HCT116; area under curve, 0.4-25.6 µM) was 1,37, the IC50 (HCT116; Homo sapiens, HCT-116, resazurin) was 0.86 µM and the AUC (H23; area under curve, 0.4-25.6 µM) was 5,38. The IC50 (H23; Homo sapiens, NCI-H23, resazurin, read-out: ICso) was 3.54 µM, the IC50 (OVCAR3; Homo sapiens, OVCAR-3, resazurin) was 2.64 µM and the AUC (OVCAR3; area under curve, 0.4-25.6 µM) was 4,813. For the same compound, the AUC (HepG2; area under curve, 0.4-25.6 µM) was 4,54 and the IC50 (HepG2; [1]) was 3.59 µM.
